The values that follow come from US10889554B2, “Excimer forming compounds” (THE GOVERNING COUNCIL OF THE UNIVERSITY OF TORONTO, priority 2013, dated 2021).

Data set [1] concerns pYpY peptide. The data set is described as follows: Detection of pY and pYpY peptides with non-pyrene excimer forming derivatives. It is filed as binding. Particulars: for excimer emission peak in response to pYpY peptide in fluorescence emission spectra / peak when pYpY spectra are divided by those of pY or buffer control: 250 μM Zn^2+ triflate complexes, 125 μM peptide, irradiated at 290 nm; for detection limit of pYpY peptide, selectively over pY peptide: 250 μM compound in complex with Zn^2+ (triflate salt), pH 7.5 50 mM HEPES, 10% DMSO. The method, then: Non-pyrene excimer forming derivatives (compounds 4-7) were synthesized and assessed for their ability to sense proximally phosphorylated peptides. All experiments for these derivatives were performed in pH 7.5 50 mM HEPES, 10% DMSO. 125 μM pY and pYpY peptides were combined with 250 μM of compounds 4, 5 and 6 (Zn^2+ triflate complexes), or buffer as background control, and the solution was irradiated at 290 nm and fluorescence emission scan was recorded. […] These peaks indicate that the spike in response to the addition of pYpY corresponds to excimer formation, since 420 nm region corresponds to a roughly 100 nm shift from the monomer emission maximum (approximately at 330 nm).
pY and pYpY peptides were titrated into 250 μM of compound 4 in complex with Zn^2+ (triflate salt) in pH 7.5 50 mM HEPES, 10% DMSO. […] Time-resolved experiments were also conducted, where the delay time prior to acquisition of fluorescence was varied (0, 5, 10, and 15 μs; FIG. 21). In this case, the concentration of compound 4 in complex with Zn^2+ (triflate salt) was constant at 40 μM.
pY and pYpY peptides were also titrated into 250 μM of compound 5 in complex with Zn^2+ (triflate salt) in pH 7.5, 50 mM HEPES, 10% DMSO. The fluorescence emission spectra (FIG. 23) indicate a pYpY-selective enhancement in the excimer region of the fluorophore.

Data set [2] addresses T1, β-casein (Bos taurus, UniProt P02666).
T1 construct: purchased Sigma Aldrich C6905-250MG
T1 sequence (P02666 16-224): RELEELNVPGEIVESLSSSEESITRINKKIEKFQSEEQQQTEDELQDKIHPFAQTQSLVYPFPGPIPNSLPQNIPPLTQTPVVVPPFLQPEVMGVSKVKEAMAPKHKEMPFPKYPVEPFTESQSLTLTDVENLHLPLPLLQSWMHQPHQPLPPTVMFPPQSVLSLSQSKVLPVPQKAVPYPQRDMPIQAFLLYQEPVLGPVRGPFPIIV
As to the kind of experiment: On-gel detection of proximally phosphorylated protein using GaCl3 complexes. It is filed as binding. As to the method: (§1) Compound 8 was dissolved in 50 mM NaOAc buffer, pH 4.5, 50 mM NaCl, 10% DMSO and combined with 80, 160 or and 240 μM GaCl3 solutions. Each gel contained 4 lanes with equal amounts of BSA, ovalbumin (Ova), β-casein (β-cas) and lysozyme (Lyso) in each lane (left to right: 1, 0.5, 0.25 and 0.125 μg per protein per lane) (see FIG. 37). Gels were stained for 1 h with the sensor solution. Gels were first de-stained with 50 mM NaOAc buffer pH 4.5 for 2 h and then with 50 mM NaOAc buffer pH 4.0 20% acetonitrile for 40 h.
(§2) Compound 8 was dissolved in 100 mM NaOAc buffer, pH 4.5, 150 mM NaCl, 20% propylene glycol and combined with 10 and 15 μM GaCl3 solutions. Each gel contained 4 lanes with equal amounts of BSA, ovalbumin (Ova), β-casein (β-cas) and lysozyme (Lyso) in each lane (FIG. 40) left to right: 1, 0.5, 0.25 and 0.125 μg per protein per lane). Gels were stained for 1.5 h with the sensor solution. Destaining was performed for variable time (specified at the top) with 50 mM NaOAc, pH 4.0, 20% acetonitrile. Gels were rinsed with MiliQ water for 5 min prior to imaging. Images were acquired using ChemiDoc MP, using a 530 nm emission filter and UV trans excitation.
as §1, with “Compound 2” for “Compound 8”, “lane) (FIG. 42).” for “lane) (see FIG. 37).”, “h. […] However with the increased destaining time the intensity of β-casein band relative to other proteins was increasing, resulting in a 6.7-fold higher intensity over the distally phosphorylated protein ovalbumin. Lane containing 1 μg of each protein was analyzed (FIG. 43).” for “h.”
as §2, with “2” for “8”, “45)” for “40)”, “acetonitrile (see FIGS. 45 and 46).” for “acetonitrile.”

The subject of data set [3] is proximally phosphorylated proteins (α-casein, β-casein and D-α-casein). As to the kind of experiment: In-solution detection of proteins. It is filed as binding, Bos taurus. The following applies: Zn^2+ (triflate salt) complexes; pH 7.5, 50 mM HEPES, 75 mM NaCl, 20% DMSO. The text has this: Non-phosphorylated (BSA and lysozyme) and distally phosphorylated negative control proteins (ovalbumin) were used in detection methods for in-solution, on gel and on blot applications. Dephosphorylated α-casein (D-α-casein), β-casein and α-casein served as proximally phosphorylated positive controls (see Table 2). The phosphosites presented in Table 2 were obtained from the PhosphoSitePlus database or a UniProt database.
Various conditions for the detection of proximally phosphorylated proteins and proteins in aqueous solution are shown in Table 3. Proteins were dissolved in a buffer at various concentrations (normally 100 μM to 40 nM), and combined with 40 μM of compound 1 in complex with Zn^2+ (triflate salt) dissolved in the same buffer on a 384 well flat bottom black plate. The mixture was incubated for 20 minutes and fluorescence emission intensity at 476 nm (10-20 nm bandwidth) was measured using a Tecan M1000 microplate reader, upon excitation at 350 nm (5 nm bandwidth) at 400 Hz. The different conditions tested were assessed based on the ratios of signal intensity of positive to negative control analytes and signal intensity in general. Among the parameters assessed in this study and using these specific control proteins, the following conditions were selected for proteins studies: pH 5.5 50 mM NaOAc, 50 mM NaCl, 5% DMSO (see FIG. 27). […] Depending on the number of proximally di-phosphorylated sites, lower detection limits could be achieved by using lower concentration of a sensor.
Using same methods as described in Example 1.1c, Zn^2+ (triflate salt) complexes of compounds 1 (top left), compound 9 (top right), compound 15 (middle left), and compound 14 (middle right) were tested in pH 7.5, 50 mM HEPES, 75 mM NaCl, 20% DMSO (see FIG. 28).
Using same methods as described in Example 14, 40 and 20 μM of Zn^2+ (triflate salt) complexes of compound 1 (top) and compound 12 (bottom) (FIG. 29), were tested in pH 7.5, 50 mM HEPES, 5% DMSO.
Using same methods as described above, 60, 40, 20 and 10 μM of Zn^2+ (triflate salt) complexed with compound 12 (FIG. 30), were titrated with 80-0.04 μM of proteins in pH 7.5, 50 mM HEPES, 5% DMSO.

Structures are written as SMILES.

In turn, `O=C(Cc1ccc2ccc3cccc4ccc1c2c34)N1CCNCCNCCNCC1` displayed a melting point of 75 to 79 °C.

As to `O=C(CCCc1ccc2ccc3cccc4ccc1c2c34)N1CCNCCNCCNCC1`, the melting point fell in the range of 83 to 86 °C.

`c1cc2ccc3ccc(CCCCOCc4cc(CN5CCNCCNCCNCC5)cc(CN5CCNCCNCCNCC5)c4)c4ccc(c1)c2c34`: the melting point fell in the range of 55 to 60 °C.

For `c1ccc2c(CN3CCNCCNCCNCC3)cccc2c1` [compound 4, 1-(naphthalen-1-ylmethyl)-1,4,7,10-tetraazacyclododecane], in data set [1], the “excimer emission peak in response to pYpY peptide in fluorescence emission spectra” value (“excimer emission peak in response” for short) was “No distinct peak”; the “peak when pYpY spectra are divided by those of pY or buffer control” value was “distinct peak in the 420 nm region”; the “detection limit of pYpY peptide, selectively over pY peptide” value is “single-digit”. Further, the “signal selectivity towards pYpY with 15 μs delay time” value in data set [1] (time-resolved, 40 μM compound in complex with Zn^2+) is on record as “retained”.

Turning to `c1ccc2cc(CN3CCNCCNCCNCC3)ccc2c1` [compound 5, 1-(naphthalen-2-ylmethyl)-1,4,7,10-tetraazacyclododecane], in data set [1], the “excimer emission peak in response” value is reported as “No distinct peak”; the “peak when pYpY spectra are divided by those of pY or buffer control” value is “distinct peak in the 420 nm region”; the “detection limit of pYpY peptide, selectively over pY peptide” value was “single-digit”.

Take `c1ccc2c(c1)cc(CN1CCNCCNCCNCC1)c1ccccc12` [compound 6, 1-(phenanthren-9-ylmethyl)-1,4,7,10-tetraazacyclododecane]: in data set [1], the “excimer emission peak in response” value is given as “No distinct peak”.

Turning to `O=C(O)CN(CC(=O)O)c1ccccc1OCCOc1cc(NC(=O)c2ccc3ccc4cccc5ccc2c3c45)ccc1N(CC(=O)O)CC(=O)O` [compound 8, 2,2′-((2-(2-(2-(bis(carboxymethyl)amino)-5-(pyrene-1-carboxamido)phenoxy)ethoxy)phenyl)azanediyl)diacetic acid], the “selectivity for β-casein after 2 h destaining” value in data set [2] (80 μM compound, 1:1 GaCl3, stained 1 h) is reported as “improved”. Besides, the “β-casein over distally phosphorylated ovalbumin” value in data set [2] (80 μM compound, 1:1 GaCl3, stained 1 h, 40 h destaining, 1 μg per protein) came out at 4.5 fold. Further, the “selectivity for β-casein with more than 1:1 equivalent of compound:GaCl3” value in data set [2] (50 mM NaOAc pH 4.5, 50 mM NaCl, 10% DMSO, 160 or 240 μM GaCl3) is “did not result in good selectivity”. Further, the “selective staining for β-casein, no destaining” value in data set [2] (100 mM NaOAc pH 4.5, 150 mM NaCl, 20% propylene glycol, 1:1 and 1:1.5 compound:GaCl3, stained 1.5 h) is given as “did not result in selective staining”. Moreover, in data set [2] (100 mM NaOAc pH 4.5, 150 mM NaCl, 20% propylene glycol, destain 50 mM NaOAc, pH 4.0, 20% acetonitrile), the “staining of β-casein band following 16 h destain” value is reported as “most prominently stained band”.

For the compound `c1ccc(CN(Cc2ccccn2)Cc2ccc3ccc4cccc5ccc2c3c45)nc1` [compound 14, 1-(pyren-1-yl)-N,N-bis(pyridin-2-ylmethyl)methanamine], the melting point fell in the range of 108 to 112 °C. Further, the “efficiency at detecting the proximally phosphorylated proteins” value in data set [3] is on record as “comparable efficiency”.

`c1ccc(CN(CCCCc2ccc3ccc4cccc5ccc2c3c45)Cc2ccccn2)nc1` [compound 15, 4-(pyren-1-yl)-N,N-bis(pyridin-2-ylmethyl)butan-1-amine] registered a melting point of 61 to 62 °C. Moreover, the “efficiency at detecting the proximally phosphorylated proteins” value in data set [3] is recorded as “comparable efficiency”.
